The results in this text go back to publication PMC9203742 (Nature Communications, 2022).

Each structure is given as a SMILES string. Where “and” joins values, the source holds several entries; their conditions need not be identical. Equal values may be shown once. Starred links: 1 amine or outer side, 2 acyl side, 3 side chain; linkers in the order of their positions; H or OH if unused. Positions of bridges follow the written chain, without caps; N, C: chain ends. Non-standard residues stand in square brackets, D forms with d. Residues, ends and D or L forms follow the SMILES beside them. X1 = CC(=O)NC(C(=O)OC(C(C)C)C(N[*:1])C(=O)[*:2])C(O)C(C)C; PhLac = O=C(O)[CH](O)Cc1ccccc1; NMeT = CN[CH](C(=O)O)[CH](C)O; NMeA = CN[CH](C)C(=O)O; NMeDha = C=C(NC)C(=O)O

What all share (format): cell-based
For one assay, the target named is T1, mGlu1(N264H) mutant (Rattus norvegicus, UniProt P23385, N264H).
T1 construct: expressed in transfected cells; host or cells: HEK293
T1 sequence (P23385 19-1199 N264H): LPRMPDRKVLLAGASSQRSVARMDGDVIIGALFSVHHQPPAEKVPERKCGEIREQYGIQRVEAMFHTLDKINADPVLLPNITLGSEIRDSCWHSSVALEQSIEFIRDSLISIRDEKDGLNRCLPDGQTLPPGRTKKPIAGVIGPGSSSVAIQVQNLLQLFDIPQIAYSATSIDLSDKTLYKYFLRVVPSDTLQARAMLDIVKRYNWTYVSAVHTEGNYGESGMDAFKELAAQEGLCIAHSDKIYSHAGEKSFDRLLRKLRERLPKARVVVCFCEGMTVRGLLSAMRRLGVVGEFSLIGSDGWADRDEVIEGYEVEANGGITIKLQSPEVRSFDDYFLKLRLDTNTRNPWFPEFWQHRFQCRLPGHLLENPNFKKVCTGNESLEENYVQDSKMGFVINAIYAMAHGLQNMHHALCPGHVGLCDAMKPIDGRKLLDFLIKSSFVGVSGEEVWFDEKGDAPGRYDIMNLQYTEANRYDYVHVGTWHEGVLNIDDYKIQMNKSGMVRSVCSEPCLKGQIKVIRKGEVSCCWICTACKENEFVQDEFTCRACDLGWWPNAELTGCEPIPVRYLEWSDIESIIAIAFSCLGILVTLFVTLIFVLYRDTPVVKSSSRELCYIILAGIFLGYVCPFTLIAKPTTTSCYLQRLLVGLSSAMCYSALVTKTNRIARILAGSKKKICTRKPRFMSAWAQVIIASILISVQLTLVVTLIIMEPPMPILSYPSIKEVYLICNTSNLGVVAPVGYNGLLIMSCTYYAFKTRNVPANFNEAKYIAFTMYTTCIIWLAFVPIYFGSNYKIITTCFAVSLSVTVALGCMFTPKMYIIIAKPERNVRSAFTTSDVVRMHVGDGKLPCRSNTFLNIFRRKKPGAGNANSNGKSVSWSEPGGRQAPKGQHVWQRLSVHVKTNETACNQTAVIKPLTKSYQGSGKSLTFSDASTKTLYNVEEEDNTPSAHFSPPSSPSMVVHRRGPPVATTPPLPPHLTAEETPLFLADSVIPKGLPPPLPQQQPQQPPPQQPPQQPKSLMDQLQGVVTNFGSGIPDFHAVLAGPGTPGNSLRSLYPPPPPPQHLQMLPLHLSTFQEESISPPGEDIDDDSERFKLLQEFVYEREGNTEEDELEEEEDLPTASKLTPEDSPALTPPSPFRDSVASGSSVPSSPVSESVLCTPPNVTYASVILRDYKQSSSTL
The assay can be described thus: Fura-2 Ca2+ imaging in HEK293 cells expressing mGlu1(N264H). The settings on record: for Receptor activation (Ca2+ response, Δratio): 3 μM Pd(bpy) derivative; for Ca2+ response to Pd complex, individual cells #1-#20 (Fig.4e): single-cell values.

Another assay concerns the target T2, mGlu1 P58H/N264H mutant (Rattus norvegicus, UniProt P23385, N264H/P58H).
T2 construct: expressed in transfected cells; host or cells: HEK293
The assay can be described thus: Fura-2 Ca2+ imaging in HEK293 cells expressing mGlu1 P58H/N264H. The settings on record: 10 μM metal ion or metal complex.

Another assay deals with T3, mGlu1 A59H/N264H mutant (Rattus norvegicus, UniProt P23385, A59H/N264H).
T3 construct: expressed in transfected cells; host or cells: HEK293
T3 sequence (P23385 19-1199 A59H/N264H): as the sequence (P23385 19-1199 N264H) above, with A41H counted along it
The assay can be described thus: Fura-2 Ca2+ imaging in HEK293 cells expressing mGlu1 A59H/N264H. The note with it: 10 μM metal ion or metal complex.

In the next assay the target is T4, mGlu1 K61H/N264H mutant (Rattus norvegicus, UniProt P23385, K61H/N264H).
T4 construct: expressed in transfected cells; host or cells: HEK293
T4 sequence (P23385 19-1199 K61H/N264H): as the sequence (P23385 19-1199 N264H) above, with K43H counted along it
Kind of assay: Fura-2 Ca2+ imaging in HEK293 cells expressing mGlu1 K61H/N264H. The note with it: 10 μM metal ion or metal complex.

For another assay, the target named is T5, mGlu1 P57H/N264H mutant (Rattus norvegicus, UniProt P23385, N264H/P57H).
T5 construct: expressed in transfected cells; host or cells: HEK293
T5 sequence (P23385 19-1199 P57H/N264H): as the sequence (P23385 19-1199 N264H) above, with P39H counted along it
Kind of assay: Fura-2 Ca2+ imaging in HEK293 cells expressing mGlu1 P57H/N264H. The settings on record: 10 μM metal ion or metal complex.

In another assay the target is T6, mGlu1 E60H/N264H mutant (Rattus norvegicus, UniProt P23385, E60H/N264H).
T6 construct: expressed in transfected cells; host or cells: HEK293
T6 sequence (P23385 19-1199 E60H/N264H): as the sequence (P23385 19-1199 N264H) above, with E42H counted along it
The assay can be described thus: Fura-2 Ca2+ imaging in HEK293 cells expressing mGlu1 E60H/N264H. The settings on record: 10 μM metal ion or metal complex.

T2 sequence (P23385 19-1199 P58H/N264H): as the sequence (P23385 19-1199 N264H) above, with P40H counted along it

`OCc1ccnc(-c2cc(CO)ccn2)c1.[Cl][Pd][Cl]` [Pd(OH-bpy)]: the “Ca2+ response, concentration dependence (Fig.4f)” value is -0.02066 at mGlu1(N264H) mutant (0.01 µM Pd complex); 0.003658 at mGlu1(N264H) mutant (0.03 µM Pd complex); 0.0176 on mGlu1(N264H) mutant (0.1 µM Pd complex); 0.1704 at mGlu1(N264H) mutant (0.3 µM Pd complex); 0.2068 at mGlu1(N264H) mutant (1 µM Pd complex); 0.4989 on mGlu1(N264H) mutant (3 µM Pd complex). The “Ca2+ response, concentration dependence (Fig.4f)” value on mGlu1(N264H) mutant (10 µM Pd complex) is listed as 0.5148; on mGlu1(N264H) mutant (30 µM Pd complex), 0.5694. For the same molecule, the “Receptor activation (Ca2+ response, Δratio)” value at mGlu1(N264H) mutant is “successfully activated”. In addition, the EC50 on mGlu1(N264H) mutant (HEK293 cells, Fura-2, read-out: EC50, Ca2+ response (Δratio)) was found to be 1.1 µM. Further, the “Ca2+ response to Pd complex, individual cells #1-#20 (Fig.4e)” value (shortened to “Ca2+ response to Pd complex”) at mGlu1(N264H) mutant was 0.09363 and -0.01751 and 0.927 and 0.3494 and 0.8377 and 0.7197 and 0.003631 and 0.04434 and -0.01218 and -0.01678 and 1.414 and 0.5875 and -0.01008 and 0.646 and 0.8168 and 0.6391 and 0.4133 and 1.082 and 0.03592 and 1.1834.
On to `[Cu+2]` [Cu^2+, reference compound], for which the “Receptor activation ([Ca2+]i change, Δratio)” value on mGlu1 P58H/N264H mutant, at mGlu1 A59H/N264H mutant, at mGlu1 K61H/N264H mutant, on mGlu1 P57H/N264H mutant and at mGlu1 E60H/N264H mutant was “failed to activate” throughout.
Take `C=C1C(=O)NC(C)C(=O)N(C)C(C)C(=O)NC(C(OC(=O)C(NC(C)=O)C(O)C(C)C)C(C)C)C(=O)N(C)C(C(C)OC)C(=O)OC(C)C(NC(C)=O)C(=O)OC(Cc2ccccc2)C(=O)N1C` (stereo not drawn) [YM-254890, reference compound] (Ac-T[PhLac][NMeDha]A[NMeA][X1][NMeT](Me); ester 1-C; configuration not given here): the “Effect of pre-treated inhibitor on 10 µM Pd(bpy)-induced Ca2+ responses” value on mGlu1(N264H) mutant (10 µM LY367385, 1 µM FITM, 10 µM YM254890 or 1 µM U73122) is on record as “suppressed”.
Regarding `OCCOCCOCc1ccnc(-c2cc(COCCOCCO)ccn2)c1.[Cl][Pd][Cl]` [Pd(EG-bpy)], at mGlu1(N264H) mutant, the “Receptor activation (Ca2+ response, Δratio)” value is reported as “weakened responses”; the “Ca2+ response to Pd complex” value is -0.02498 and -0.009 and -0.01094 and -0.001385 and -0.02155 and -0.01075 and -0.019 and 0.05131 and 0.02474 and 0.01748 and 0.01646 and -0.03188 and 0.7968 and -0.03567 and 0.2621.
In the case of `[Zn+2]` [Zn^2+, reference compound], the “Receptor activation ([Ca2+]i change, Δratio)” value on mGlu1 P58H/N264H mutant, on mGlu1 A59H/N264H mutant, at mGlu1 K61H/N264H mutant, on mGlu1 P57H/N264H mutant and at mGlu1 E60H/N264H mutant was “failed to activate” throughout.
Turning to `[Cd+2]` [Cd^2+, reference compound], the “Receptor activation ([Ca2+]i change, Δratio)” value at mGlu1 P58H/N264H mutant, at mGlu1 A59H/N264H mutant, on mGlu1 K61H/N264H mutant, at mGlu1 P57H/N264H mutant and on mGlu1 E60H/N264H mutant was “failed to activate” throughout.
Take `O=S(=O)([O-])CCCOCc1ccnc(-c2cc(COCCCS(=O)(=O)[O-])ccn2)c1.[Cl][Pd][Cl].[Na+].[Na+]` [Pd(di-sulfo-bpy)]: on mGlu1(N264H) mutant, the “Receptor activation (Ca2+ response, Δratio)” value is “failed to activate”; the “Ca2+ response to Pd complex” value was 0.01072 and 0.008046 and 0.01006 and 0.04502 and 0.003731 and 0.0195 and 0.007615 and 0.1169 and -0.002485 and 0.009585 and 0.3142 and 0.02231 and 0.005731 and 0.02578 and 0.01671.
As for `[Ni+2]` [Ni^2+, reference compound], the “Receptor activation ([Ca2+]i change, Δratio)” value on mGlu1 P58H/N264H mutant, at mGlu1 A59H/N264H mutant, on mGlu1 K61H/N264H mutant, on mGlu1 P57H/N264H mutant and on mGlu1 E60H/N264H mutant was “failed to activate” each time.
